Measured values taken from patent US20250230193A1, “CYCLIC COMPOUND HAVING SELECTIVE KRAS INHIBITORY EFFECT ON HRAS AND NRAS” (CHUGAI SEIYAKU KABUSHIKI KAISHA, priority 2022, published 2025).

Tests used:
[1] = target: GDP-bound NRAS wild-type protein (Homo sapiens, UniProt P01111); assay: Binding to NRAS by surface plasmon resonance (SPR), Single Cycle Kinetics; conditions: for NRAS/KRAS (ratio of KD value with respect to NRAS to KD value with respect to KRAS): GDP-bound NRAS wild-type vs GDP-bound KRAS wild-type
[2] = target: GDP-bound HRAS wild-type protein (Homo sapiens, UniProt P01112); assay: Binding to HRAS by surface plasmon resonance (SPR), Single Cycle Kinetics; conditions: for HRAS/KRAS (ratio of KD value with respect to HRAS to KD value with respect to KRAS): GDP-bound HRAS wild-type vs GDP-bound KRAS wild-type
GDP-bound HRAS wild-type protein, sequence (P01112 whole entry): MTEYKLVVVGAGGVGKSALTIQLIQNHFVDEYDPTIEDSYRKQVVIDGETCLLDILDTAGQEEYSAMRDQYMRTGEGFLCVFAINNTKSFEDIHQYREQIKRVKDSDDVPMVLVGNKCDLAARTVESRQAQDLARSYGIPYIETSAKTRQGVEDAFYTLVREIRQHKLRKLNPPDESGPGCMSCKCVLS

GDP-bound NRAS wild-type protein, sequence (P01111 whole entry): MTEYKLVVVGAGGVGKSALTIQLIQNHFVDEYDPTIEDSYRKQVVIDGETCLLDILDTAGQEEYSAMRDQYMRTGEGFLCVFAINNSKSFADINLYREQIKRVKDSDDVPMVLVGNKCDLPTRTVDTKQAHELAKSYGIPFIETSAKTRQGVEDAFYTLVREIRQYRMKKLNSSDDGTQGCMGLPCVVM

SMILES | NRAS/KRAS (ratio of KD value with respect to NRAS to KD value with respect to KRAS) ([1]; SPR) | HRAS/KRAS (ratio of KD value with respect to HRAS to KD value with respect to KRAS) ([2]; SPR) | other results
CCC[C@H]1C(=O)N[C@@H]([C@@H](C)CC)C(=O)N(C2CC2)CC(=O)N(C)[C@H]2C/C=C\CCN(C2=O)[C@@H](CC2CCCCC2)C(=O)N(C)CC(=O)N[C@@H](CCc2ccc(C(F)(F)F)c(OC)c2)C(=O)N2C[C@H](OCC)C[C@H]2C(=O)N(C)C2(CCC2)C(=O)N(C)[C@@H](C(CC)CC)C(=O)N(C)[C@H](C(=O)N(C)C)CC(=O)N1C [PP2337] | A (a compound having 10 or more and less than 20 is denoted as A) | A (a compound having 10 or more and less than 20 is denoted as A) | 
CCO[C@@H]1C[C@H]2C(=O)N(C)C3(CCC3)C(=O)N(C)[C@@H](C(CC)CC)C(=O)N(C)[C@H](C(=O)N(C)C)CC(=O)N(C)[C@@H](COC)C(=O)N[C@@H]([C@@H](C)CC)C(=O)N(C)CC(=O)N(C)[C@H]3C/C=C\CCN(C3=O)[C@@H](CC3CCCCC3)C(=O)N(C)CC(=O)N[C@@H](CCc3ccc(C(F)(F)F)c(OC)c3)C(=O)N2C1 [PP2335] | A (a compound having 10 or more and less than 20 is denoted as A) | A (a compound having 10 or more and less than 20 is denoted as A) | 
CCO[C@@H]1C[C@H]2C(=O)NC3(CC(C)(C)C3)C(=O)N(C)[C@@H](C(CC)CC)C(=O)N(C)[C@H](C(=O)N3CCCC3)CC(=O)N(C)[C@@H](C)C(=O)N[C@@H]([C@@H](C)CC)C(=O)N(C)CC(=O)N(C)[C@H]3C/C=C\CCN(C3=O)[C@@H](Cc3ccc(C)cc3)C(=O)N(C)CC(=O)N[C@@H](CCc3ccc(C(F)(F)F)c(Cl)c3)C(=O)N2C1 [PP2152] | AA (a compound having 20 or more is denoted as AA) | A (a compound having 10 or more and less than 20 is denoted as A) | 
CCC[C@H]1C(=O)N[C@H]([C@@H](C)CC)C(=O)N2C[C@@H](OC)C[C@H]2C(=O)N(C)[C@H]2C/C=C\CCN(C2=O)[C@@H](Cc2ccc(C)cc2)C(=O)N(C)CC(=O)N[C@@H](CCc2ccc(C(F)(F)F)c(Cl)c2)C(=O)N2C[C@H](OCC)C[C@H]2C(=O)NC2(CCC2)C(=O)N(C)[C@@H](C2CCCC2)C(=O)N(C)[C@H](C(=O)N(C)C)CC(=O)N1C (stereo in doubt) [PP2552] |  |  | NRAS/KRAS (ratio of KD value with respect to GDP-bound NRAS wild-type protein to KD value with respect to KRAS) ([1]; class symbols): A (a compound having 10 or more and less than 20 is denoted as A); HRAS/KRAS (ratio of KD value with respect to GDP-bound HRAS wild-type protein to KD value with respect to KRAS) ([2]; class symbols): B (a compound having 3 or more and less than 10 is denoted as B)
CC[C@H](C)[C@@H]1NC(=O)[C@H](CC(C)C)N(C)C(=O)C[C@@H](C(=O)N(C)C)N(C)C(=O)[C@H](C2CCCC2)N(C)C(=O)C2(CCCC2)NC(=O)[C@@H]2CC(F)(F)CN2C(=O)[C@H](CCc2cc(F)c(C(F)(F)F)c(F)c2)NC(=O)CN(C)C(=O)[C@H](Cc2ccc(C(F)(F)F)cc2)N2CCCCC[C@@H](C2=O)N(C)C(=O)CN(C)C1=O [PP0465] |  |  | NRAS/KRAS (ratio of KD value with respect to GDP-bound NRAS wild-type protein to KD value with respect to KRAS) ([1]; SPR): B (a compound having 3 or more and less than 10 is denoted as B); HRAS/KRAS (ratio of KD value with respect to GDP-bound HRAS wild-type protein to KD value with respect to KRAS) ([2]; SPR): B (a compound having 3 or more and less than 10 is denoted as B)
CC[C@H](C)[C@@H]1NC(=O)[C@H](C2CCC2)N(C)C(=O)C[C@@H](C(=O)N(C)CC)N(C)C(=O)[C@H](C2CCCC2)N(C)C(=O)C2(CCC2)NC(=O)[C@@H]2C[C@H](C)CN2C(=O)[C@H](CCc2ccc(C(F)(F)F)c(OC)c2)NC(=O)CN(C)C(=O)[C@H](Cc2ccc(C(F)(F)F)cc2)N2CC/C=C\C[C@@H](C2=O)N(C)C(=O)CN(C)C1=O [PP2071] | A (a compound having 10 or more and less than 20 is denoted as A) | A (a compound having 10 or more and less than 20 is denoted as A) | 
CCC[C@H]1C(=O)N[C@@H](CC(C)C)C(=O)N2C[C@@H](OC)C[C@H]2C(=O)N(C)[C@H]2C/C=C\CCN(C2=O)[C@@H](Cc2ccc(C)cc2)C(=O)N(C)CC(=O)N[C@@H](CCc2ccc(C(F)(F)F)c(Cl)c2)C(=O)N2C[C@H](OCC)C[C@H]2C(=O)NC2(CCC2)C(=O)N(C)[C@@H](C2CCCC2)C(=O)N(C)[C@H](C(=O)N(C)C)CC(=O)N1C [PP2549] |  |  | NRAS/KRAS (ratio of KD value with respect to GDP-bound NRAS wild-type protein to KD value with respect to KRAS) ([1]; class symbols): A (a compound having 10 or more and less than 20 is denoted as A); HRAS/KRAS (ratio of KD value with respect to GDP-bound HRAS wild-type protein to KD value with respect to KRAS) ([2]; class symbols): B (a compound having 3 or more and less than 10 is denoted as B)
CC[C@H](C)[C@@H]1NC(=O)[C@H](CC(C)C)N(C)C(=O)C[C@@H](C(=O)N2CCOCC2)N(C)C(=O)[C@H](C2CCCC2)N(C)C(=O)C2(CCC2)NC(=O)[C@@H]2[C@@H](OCC(F)F)CCN2C(=O)[C@H](CCc2cc(F)c(C(F)(F)F)c(F)c2)NC(=O)CN(C)C(=O)[C@H](Cc2ccc(C(F)(F)F)cc2)N2CCCCC[C@@H](C2=O)N(C)C(=O)CN(C)C1=O [PP1012] |  |  | NRAS/KRAS (ratio of KD value with respect to NRAS to KD value with respect to KRAS) ([1]; KD ratio, SPR): A (a compound having 10 or more and less than 20 is denoted as A); HRAS/KRAS (ratio of KD value with respect to HRAS to KD value with respect to KRAS) ([2]; KD ratio, SPR): B (a compound having 3 or more and less than 10 is denoted as B)
